{"source": "patent US20050027103A1", "about": "“Structural and cytoskeleton-associated protein” (priority 2001, published 2005)", "system": "expression of SEQ ID NO:33 in early confluent human C3C cells", "assay": "Microarray analysis of SEQ ID NO:33 expression in response to a steroid", "assay_type": "cell-based", "conditions": "1, 10, and 100 μM beclomethasone for 1, 3, and 6 h", "procedure": "Total RNA is isolated from tissue samples using the guanidinium thiocyanate method and poly(A)^+ RNA is purified using the oligo-(dT) cellulose method. Each poly(A)^+ RNA sample is reverse transcribed using MMLV reverse-transcriptase, 0.05 pg/μl oligo-(dT) primer (21mer), 1×first strand buffer, 0.03 units/μl RNase inhibitor, 500 μM DATP, 500 μM dGTP, 500 μM dTTP, 40 μM dCTP, 40 μM dCTP-Cy3 (BDS) or dCTP-Cy5 (Amersham Biosciences). The reverse transcription reaction is performed in a […] containing 200 ng poly(A)^+ RNA with GENBRIGHT kits (Incyte). Specific control poly(A)^+ RNAs are synthesized by int vitro transcription from non-coding yeast genomic DNA. After incubation at 37° C. for 2 hr, each reaction sample (one with Cy3 and another with Cy5 labeling) is treated with […] of 0.5M sodiumhydroxide and incubated for 20 minutes at 85° C. to the stop the reaction and degrade the RNA. […]\nSequences of the present invention are used to generate array elements. […] PCR amplification uses primers complementary to the vector sequences flanking the cDNA inset Array elements are amplified in thity cycles of PCR from an initial quantity of 1-2 ng to a final quantity greater than 5 μg. […]", "data": [{"smiles": "C[C@H]1C[C@H]2[C@@H]3CCC4=CC(=O)C=C[C@]4(C)[C@@]3(Cl)[C@@H](O)C[C@]2(C)[C@@]1(O)C(=O)CO", "note": "[beclomethasone]", "values": [{"measurement": "expression of SEQ ID NO:33 decreased (microarray analysis)", "value": "at least 2 fold"}]}]}
